Data from article PMC7347136 (PLoS ONE, 2020).

Experiments:
Assay in all cases: Carna kinase panel screen
Assay type in all cases: biochemical
Details in all cases: read-out: % Inhibition ± SD
AKT2 = target: T1, AKT2 (Homo sapiens, UniProt P31751)
T1 construct: purchased Carna Biosciences
Description: (§1) IC50 values were determined from a 10-point concentration curve using ATP concentrations approximating Km values. […] The percentage inhibition of each test solution was calculated, which allowed the IC50 value to be determined from concentration versus percentage inhibition curves by fitting to a four parameter logistic curve.

AurA = target: T2, AurA (Homo sapiens, UniProt O14965)
T2 construct: purchased Carna Biosciences
Description: as §1

BRSK1 = target: T3, BRSK1 (Homo sapiens, UniProt Q8TDC3)
T3 construct: purchased Carna Biosciences
Description: as §1

CDC2 = target: T4, CDC2 (Homo sapiens, UniProt P06493)
T4 construct: purchased Carna Biosciences
Description: as §1

CDK3 = target: T5, CDK3 (Homo sapiens, UniProt Q00526)
T5 construct: purchased Carna Biosciences
Description: as §1

CDK4 = target: T6, CDK4 (Homo sapiens, UniProt P11802)
T6 construct: purchased Carna Biosciences
Description: as §1

CK1a = target: T7, CK1a (Homo sapiens, UniProt P48729)
T7 construct: purchased Carna Biosciences
Description: as §1

CRIK = target: T8, CRIK (Homo sapiens, UniProt O14578)
T8 construct: purchased Carna Biosciences
Description: as §1

CaMK1a = target: T9, CaMK1a (Homo sapiens, UniProt Q14012)
T9 construct: purchased Carna Biosciences
Description: as §1

EEF2K = target: T10, EEF2K (Homo sapiens, UniProt O00418)
T10 construct: purchased Carna Biosciences
Description: as §1

EGFR[L858R] = target: T11, EGFR[L858R] (Homo sapiens, UniProt P00533, L858R)
T11 construct: purchased Carna Biosciences
Description: as §1

EphB3 = target: T12, EphB3 (Homo sapiens, UniProt P54753)
T12 construct: purchased Carna Biosciences
Description: as §1

Erk5 = target: T13, Erk5 (Homo sapiens, UniProt Q13164)
T13 construct: purchased Carna Biosciences
Description: as §1

FAK = target: T14, FAK (Homo sapiens, UniProt Q05397)
T14 construct: purchased Carna Biosciences
Description: as §1

FES = target: T15, FES (Homo sapiens, UniProt P07332)
T15 construct: purchased Carna Biosciences
Description: as §1

FLT3 = target: T16, FLT3 (Homo sapiens, UniProt P36888)
T16 construct: purchased Carna Biosciences
Description: as §1

GSK3a = target: T17, GSK3a (Homo sapiens, UniProt P49840)
T17 construct: purchased Carna Biosciences
Description: as §1

HCK = target: T18, HCK (Homo sapiens, UniProt P08631)
T18 construct: purchased Carna Biosciences
Description: as §1

HIPK3 = target: T19, HIPK3 (Homo sapiens, UniProt Q9H422)
T19 construct: purchased Carna Biosciences
Description: as §1

IKKe = target: T20, IKKe (Homo sapiens, UniProt Q14164)
T20 construct: purchased Carna Biosciences
Description: as §1

JAK3 = target: T21, JAK3 (Homo sapiens, UniProt P52333)
T21 construct: purchased Carna Biosciences
Description: as §1

JNK1 = target: T22, JNK1 (Homo sapiens, UniProt P45983)
T22 construct: purchased Carna Biosciences
Description: as §1

JNK3 = target: T23, JNK3 (Homo sapiens, UniProt P53779)
T23 construct: purchased Carna Biosciences
Description: as §1

LIMK1 = target: T24, LIMK1 (Homo sapiens, UniProt P53667)
T24 construct: purchased Carna Biosciences
Description: as §1

MAP2K1 = target: T25, MAP2K1 (Homo sapiens, UniProt Q02750)
T25 construct: purchased Carna Biosciences
Description: as §1

MAP2K6 = target: T26, MAP2K6 (Homo sapiens, UniProt P52564)
T26 construct: purchased Carna Biosciences
Description: as §1

MAP3K4 = target: T27, MAP3K4 (Homo sapiens, UniProt Q9Y6R4)
T27 construct: purchased Carna Biosciences
Description: as §1

MGC42105 = target: T28, MGC42105 (Homo sapiens, UniProt Q8IY84)
T28 construct: purchased Carna Biosciences
Description: as §1

MLK1 = target: T29, MLK1 (Homo sapiens, UniProt P80192)
T29 construct: purchased Carna Biosciences
Description: as §1

MST4 = target: T30, MST4 (Homo sapiens, UniProt Q9P289)
T30 construct: purchased Carna Biosciences
Description: as §1

NEK7 = target: T31, NEK7 (Homo sapiens, UniProt Q8TDX7)
T31 construct: purchased Carna Biosciences
Description: as §1

NEK9 = target: T32, NEK9 (Homo sapiens, UniProt Q8TD19)
T32 construct: purchased Carna Biosciences
Description: as §1

PEK = target: T33, PEK (Homo sapiens, UniProt Q9NZJ5)
T33 construct: purchased Carna Biosciences
Description: as §1

PKCa = target: T34, PKCa (Homo sapiens, UniProt P17252)
T34 construct: purchased Carna Biosciences
Description: as §1

PKCe = target: T35, PKCe (Homo sapiens, UniProt Q02156)
T35 construct: purchased Carna Biosciences
Description: as §1

PKCz = target: T36, PKCz (Homo sapiens, UniProt Q05513)
T36 construct: purchased Carna Biosciences
Description: as §1

PRKX = target: T37, PRKX (Homo sapiens, UniProt P51817)
T37 construct: purchased Carna Biosciences
Description: as §1

ROS = target: T38, ROS (Homo sapiens, UniProt P08922)
T38 construct: purchased Carna Biosciences
Description: as §1

TNK1 = target: T39, TNK1 (Homo sapiens, UniProt Q13470)
T39 construct: purchased Carna Biosciences
Description: as §1

TSSK1 = target: T40, TSSK1 (Homo sapiens, UniProt Q9BXA7)
T40 construct: purchased Carna Biosciences
Description: as §1

ZAP70 = target: T41, ZAP70 (Homo sapiens, UniProt P43403)
T41 construct: purchased Carna Biosciences
Description: as §1

p38d = target: T42, p38d (Homo sapiens, UniProt O15264)
T42 construct: purchased Carna Biosciences
Description: as §1

p70S6K = target: T43, p70S6K (Homo sapiens, UniProt P23443)
T43 construct: purchased Carna Biosciences
Description: as §1

T8 sequence (O14578 whole entry): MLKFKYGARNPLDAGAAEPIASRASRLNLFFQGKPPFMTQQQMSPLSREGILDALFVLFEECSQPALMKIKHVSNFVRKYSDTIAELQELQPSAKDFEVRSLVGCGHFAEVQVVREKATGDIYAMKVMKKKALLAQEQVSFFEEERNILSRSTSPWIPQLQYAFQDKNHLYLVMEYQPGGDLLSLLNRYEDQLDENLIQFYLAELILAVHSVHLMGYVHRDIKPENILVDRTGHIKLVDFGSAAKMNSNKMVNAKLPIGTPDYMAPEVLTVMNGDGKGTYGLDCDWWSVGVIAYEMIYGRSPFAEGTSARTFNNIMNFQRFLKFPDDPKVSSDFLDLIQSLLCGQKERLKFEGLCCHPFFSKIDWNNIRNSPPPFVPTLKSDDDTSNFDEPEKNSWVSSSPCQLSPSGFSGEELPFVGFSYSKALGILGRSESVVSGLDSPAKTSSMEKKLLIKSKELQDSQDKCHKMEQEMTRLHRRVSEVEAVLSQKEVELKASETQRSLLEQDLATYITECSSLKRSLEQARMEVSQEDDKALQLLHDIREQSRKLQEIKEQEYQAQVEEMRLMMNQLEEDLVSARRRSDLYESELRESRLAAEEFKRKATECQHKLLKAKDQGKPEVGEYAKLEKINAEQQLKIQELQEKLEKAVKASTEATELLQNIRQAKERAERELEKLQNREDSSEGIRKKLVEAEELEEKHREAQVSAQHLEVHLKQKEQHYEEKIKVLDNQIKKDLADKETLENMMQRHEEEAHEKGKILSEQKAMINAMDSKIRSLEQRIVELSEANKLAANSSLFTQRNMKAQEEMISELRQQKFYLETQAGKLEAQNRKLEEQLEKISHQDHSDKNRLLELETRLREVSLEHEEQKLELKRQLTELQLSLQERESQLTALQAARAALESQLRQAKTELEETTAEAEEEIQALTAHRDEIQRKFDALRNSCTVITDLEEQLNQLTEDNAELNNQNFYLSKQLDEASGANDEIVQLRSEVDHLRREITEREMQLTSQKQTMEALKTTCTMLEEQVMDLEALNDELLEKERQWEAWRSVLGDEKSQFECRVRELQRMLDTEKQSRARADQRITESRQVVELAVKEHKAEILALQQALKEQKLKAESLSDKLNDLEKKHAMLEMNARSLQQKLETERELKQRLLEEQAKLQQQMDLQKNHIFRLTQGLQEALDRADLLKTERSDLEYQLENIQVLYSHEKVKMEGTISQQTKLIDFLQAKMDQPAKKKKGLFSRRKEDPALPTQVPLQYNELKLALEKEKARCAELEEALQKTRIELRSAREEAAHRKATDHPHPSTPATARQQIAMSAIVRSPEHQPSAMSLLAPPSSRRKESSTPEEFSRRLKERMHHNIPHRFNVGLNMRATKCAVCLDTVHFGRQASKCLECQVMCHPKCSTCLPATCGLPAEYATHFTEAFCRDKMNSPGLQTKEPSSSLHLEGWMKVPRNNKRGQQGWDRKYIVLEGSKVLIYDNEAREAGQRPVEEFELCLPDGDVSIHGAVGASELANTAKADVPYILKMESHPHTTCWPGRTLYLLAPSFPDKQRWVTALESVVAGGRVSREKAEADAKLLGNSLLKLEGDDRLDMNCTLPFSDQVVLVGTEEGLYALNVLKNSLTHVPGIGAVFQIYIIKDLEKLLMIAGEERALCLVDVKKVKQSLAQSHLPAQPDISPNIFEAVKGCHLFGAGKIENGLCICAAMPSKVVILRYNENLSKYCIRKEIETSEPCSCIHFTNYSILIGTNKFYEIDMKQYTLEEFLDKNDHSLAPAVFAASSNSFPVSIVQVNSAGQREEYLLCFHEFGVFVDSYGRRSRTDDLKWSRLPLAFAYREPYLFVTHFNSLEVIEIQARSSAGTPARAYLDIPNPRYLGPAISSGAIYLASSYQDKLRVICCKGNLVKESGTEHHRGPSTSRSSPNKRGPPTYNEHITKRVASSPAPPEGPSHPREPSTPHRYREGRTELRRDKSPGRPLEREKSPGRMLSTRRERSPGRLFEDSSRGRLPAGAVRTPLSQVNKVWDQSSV
T11 sequence (P00533 25-1210 L858R): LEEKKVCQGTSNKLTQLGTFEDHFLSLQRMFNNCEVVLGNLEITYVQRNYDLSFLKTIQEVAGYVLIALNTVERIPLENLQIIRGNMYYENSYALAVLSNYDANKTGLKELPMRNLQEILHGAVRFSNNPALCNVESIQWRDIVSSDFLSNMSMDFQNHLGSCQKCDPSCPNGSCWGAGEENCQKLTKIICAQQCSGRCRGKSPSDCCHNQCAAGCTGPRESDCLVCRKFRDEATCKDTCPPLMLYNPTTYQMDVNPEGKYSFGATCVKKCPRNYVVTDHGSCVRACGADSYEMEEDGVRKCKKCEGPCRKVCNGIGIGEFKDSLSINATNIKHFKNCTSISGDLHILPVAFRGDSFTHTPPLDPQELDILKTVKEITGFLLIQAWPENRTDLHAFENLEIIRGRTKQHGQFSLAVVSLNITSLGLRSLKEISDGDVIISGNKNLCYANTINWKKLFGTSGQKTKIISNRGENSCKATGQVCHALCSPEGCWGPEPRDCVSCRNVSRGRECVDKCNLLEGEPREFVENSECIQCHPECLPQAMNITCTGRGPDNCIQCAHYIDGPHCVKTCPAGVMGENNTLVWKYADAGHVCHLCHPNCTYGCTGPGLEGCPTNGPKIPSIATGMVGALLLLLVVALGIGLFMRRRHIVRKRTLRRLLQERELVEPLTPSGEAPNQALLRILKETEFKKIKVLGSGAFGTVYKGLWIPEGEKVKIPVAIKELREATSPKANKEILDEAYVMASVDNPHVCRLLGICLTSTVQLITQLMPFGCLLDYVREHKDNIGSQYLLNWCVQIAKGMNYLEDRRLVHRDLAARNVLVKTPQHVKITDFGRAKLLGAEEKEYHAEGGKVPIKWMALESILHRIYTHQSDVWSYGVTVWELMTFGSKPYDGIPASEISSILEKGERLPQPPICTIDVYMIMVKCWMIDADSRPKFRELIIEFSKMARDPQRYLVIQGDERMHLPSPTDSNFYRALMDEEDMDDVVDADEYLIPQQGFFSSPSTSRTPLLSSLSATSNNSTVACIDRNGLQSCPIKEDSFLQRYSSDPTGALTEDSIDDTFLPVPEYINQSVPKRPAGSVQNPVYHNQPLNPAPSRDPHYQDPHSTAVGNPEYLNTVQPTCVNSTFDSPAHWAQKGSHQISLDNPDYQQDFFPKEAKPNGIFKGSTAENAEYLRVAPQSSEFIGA
T6 sequence (P11802 whole entry): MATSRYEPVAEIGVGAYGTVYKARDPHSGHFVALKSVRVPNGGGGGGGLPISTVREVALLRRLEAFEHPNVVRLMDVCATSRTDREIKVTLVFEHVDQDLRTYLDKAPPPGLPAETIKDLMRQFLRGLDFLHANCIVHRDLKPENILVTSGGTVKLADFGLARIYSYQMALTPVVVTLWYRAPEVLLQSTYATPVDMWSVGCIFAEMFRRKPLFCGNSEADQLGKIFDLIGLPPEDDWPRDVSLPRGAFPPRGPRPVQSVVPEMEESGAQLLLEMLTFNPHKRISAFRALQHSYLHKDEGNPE
T6 sequence (P30281 whole entry partner): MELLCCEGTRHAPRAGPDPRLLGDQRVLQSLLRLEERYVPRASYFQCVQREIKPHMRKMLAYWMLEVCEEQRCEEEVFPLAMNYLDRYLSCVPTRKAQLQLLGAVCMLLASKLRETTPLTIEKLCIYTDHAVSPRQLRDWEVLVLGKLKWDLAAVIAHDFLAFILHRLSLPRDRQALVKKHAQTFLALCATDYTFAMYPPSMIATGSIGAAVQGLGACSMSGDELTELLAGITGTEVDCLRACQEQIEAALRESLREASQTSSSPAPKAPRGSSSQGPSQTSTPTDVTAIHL
T13 sequence (Q13164 whole entry): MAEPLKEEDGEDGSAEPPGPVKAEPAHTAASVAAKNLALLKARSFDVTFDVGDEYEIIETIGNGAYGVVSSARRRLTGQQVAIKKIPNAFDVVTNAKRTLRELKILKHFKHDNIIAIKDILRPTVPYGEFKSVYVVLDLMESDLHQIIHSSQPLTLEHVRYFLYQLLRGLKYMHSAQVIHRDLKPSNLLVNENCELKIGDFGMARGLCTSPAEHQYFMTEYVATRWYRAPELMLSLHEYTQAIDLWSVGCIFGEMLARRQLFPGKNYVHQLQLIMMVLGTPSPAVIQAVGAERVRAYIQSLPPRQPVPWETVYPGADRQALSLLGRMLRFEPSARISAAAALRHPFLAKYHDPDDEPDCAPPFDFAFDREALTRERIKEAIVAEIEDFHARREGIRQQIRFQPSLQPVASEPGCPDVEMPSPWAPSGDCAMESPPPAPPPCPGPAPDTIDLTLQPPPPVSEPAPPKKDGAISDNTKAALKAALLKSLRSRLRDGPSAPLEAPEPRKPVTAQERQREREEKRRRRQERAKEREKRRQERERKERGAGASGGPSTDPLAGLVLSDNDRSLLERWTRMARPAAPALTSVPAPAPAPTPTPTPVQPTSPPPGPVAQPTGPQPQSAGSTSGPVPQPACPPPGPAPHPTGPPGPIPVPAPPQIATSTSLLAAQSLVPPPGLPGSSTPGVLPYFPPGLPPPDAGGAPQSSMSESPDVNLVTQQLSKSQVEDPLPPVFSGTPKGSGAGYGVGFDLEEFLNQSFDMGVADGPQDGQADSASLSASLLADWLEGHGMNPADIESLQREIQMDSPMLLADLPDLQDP
T28 sequence (Q8IY84 whole entry): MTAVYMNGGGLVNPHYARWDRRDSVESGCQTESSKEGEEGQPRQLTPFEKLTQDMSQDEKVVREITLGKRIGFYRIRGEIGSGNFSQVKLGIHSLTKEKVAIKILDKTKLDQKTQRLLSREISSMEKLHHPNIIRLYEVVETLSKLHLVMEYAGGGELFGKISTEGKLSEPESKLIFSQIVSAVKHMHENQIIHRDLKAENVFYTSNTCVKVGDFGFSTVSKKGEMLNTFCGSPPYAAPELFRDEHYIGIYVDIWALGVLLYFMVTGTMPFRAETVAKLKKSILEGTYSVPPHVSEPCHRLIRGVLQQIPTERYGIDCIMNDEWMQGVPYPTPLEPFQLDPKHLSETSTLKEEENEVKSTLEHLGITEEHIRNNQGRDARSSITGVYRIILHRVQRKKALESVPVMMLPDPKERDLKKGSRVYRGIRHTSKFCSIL

CC[C@H](Nc1nc(NCc2cnc(C)cc2C)c2ncn(C(C)C)c2n1)[C@@H](C)O [Fadraciclib, 2-pentanol, 3-[[6-[[(4,6-dimethyl-3-pyridinyl)methyl]amino]-9-(1-methylethyl)-9Hpurin-2-yl]amino]-, (2R,3S)] was tested, and the inhibition at 1 µM (AKT2) was 1.5 ± 0.1%, the inhibition at 1 µM (AurA) was -16.2 ± 0.4% and the inhibition at 1 µM (BRSK1) was -11.5 ± 0.1%. The inhibition at 1 µM (CDC2) was 57.9 ± 1.3%, the inhibition at 1 µM (CDK3) was 95.9% and the inhibition at 1 µM (CDK4) was 75.7 ± 5%. It also gave an inhibition at 1 µM (CK1a) of 8.2 ± 0.3%, an inhibition at 1 µM (CRIK) of -1.2% and an inhibition at 1 µM (CaMK1a) of -14.8 ± 0.2%. It also gave an inhibition at 1 µM (EEF2K) of -10.3 ± 0.2%, an inhibition at 1 µM (EGFR[L858R]) of 1.7% and an inhibition at 1 µM (EphB3) of 0%. It also gave an inhibition at 1 µM (Erk5) of 3.7 ± 0.1%, an inhibition at 1 µM (FAK) of 23.4 ± 2.9% and an inhibition at 1 µM (FES) of 14.9 ± 1.1%. It also gave an inhibition at 1 µM (FLT3) of -8.7 ± 0.1%, an inhibition at 1 µM (GSK3a) of 19.3 ± 1.3% and an inhibition at 1 µM (HCK) of -4.9 ± 0.1%. It also gave an inhibition at 1 µM (HIPK3) of -1.1%, an inhibition at 1 µM (IKKe) of 2.5 ± 0.1% and an inhibition at 1 µM (JAK3) of -9.5%. It also gave an inhibition at 1 µM (JNK1) of -13.5 ± 1.3%, an inhibition at 1 µM (JNK3) of 10.6 ± 0.6% and an inhibition at 1 µM (LIMK1) of 12.3 ± 0.4%. It also gave an inhibition at 1 µM (MAP2K1) of -6.8 ± 0.1%, an inhibition at 1 µM (MAP2K6) of 0.7% and an inhibition at 1 µM (MAP3K4) of 7.6 ± 0.1%. The inhibition at 1 µM (MGC42105) was -7.3 ± 0.1%, the inhibition at 1 µM (MLK1) was -11.2 ± 0.1% and the inhibition at 1 µM (MST4) was -2.1%. The inhibition at 1 µM (NEK7) was 0.9%, the inhibition at 1 µM (NEK9) was -23.1 ± 0.2% and the inhibition at 1 µM (PEK) was 0.3%. It also gave an inhibition at 1 µM (PKCa) of 17.8 ± 0.5%, an inhibition at 1 µM (PKCe) of 7.6 ± 0.1% and an inhibition at 1 µM (PKCz) of -0.2%. For the same compound, the inhibition at 1 µM (PRKX) was -4.2%, the inhibition at 1 µM (ROS) was -2 ± 0.1% and the inhibition at 1 µM (TNK1) was -0.2 ± 0.2%. The inhibition at 1 µM (TSSK1) was 16 ± 0.5%, the inhibition at 1 µM (ZAP70) was -11.6 ± 0.3% and the inhibition at 1 µM (p38d) was -16 ± 0.6%. It also gave an inhibition at 1 µM (p70S6K) of 5.6 ± 0.2%.
